In PubChem BioAssay (NCI):
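In this assay, cells in 96-well plates receive the compound at five concentrations for 48 hours. Endpoints are linearly interpolated between the surrounding concentrations. The concentration for 50% growth inhibition is given as GI50. At the TGI there is no net growth.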

Key:
Test in all cases: DTP human tumour cell line panel, 48 h
[1] = tested on: HCT-116 colon
[2] = tested on: CCRF-CEM leukemia
[3] = tested on: U251 CNS
[4] = tested on: MALME-3M melanoma
[5] = tested on: SN12C renal
[6] = tested on: OVCAR-8 ovarian
[7] = tested on: MOLT-4 leukemia
[8] = tested on: K-562 leukemia
[9] = tested on: OVCAR-3 ovarian
[10] = tested on: KM12 colon
[11] = tested on: BT-549 breast
[12] = tested on: UO-31 renal
[13] = tested on: UACC-62 melanoma
[14] = tested on: SK-OV-3 ovarian
[15] = tested on: SF-295 CNS
[16] = tested on: MCF7 breast
[17] = tested on: T-47D breast
[18] = tested on: M14 melanoma
[19] = tested on: A549 NSCLC
[20] = tested on: MDA-MB-435
[21] = tested on: SF-539 CNS
[22] = tested on: 786-0 renal
[23] = tested on: OVCAR-4 ovarian
[24] = tested on: SR leukemia
[25] = tested on: HCT-15 colon
[26] = tested on: HL-60(TB) leukemia
[27] = tested on: HOP-92 NSCLC
[28] = tested on: A498 renal
[29] = tested on: SNB-19 CNS
[30] = tested on: IGROV1 ovarian
[31] = tested on: NCI-H460 lung
[32] = tested on: LOX IMVI melanoma
[33] = tested on: MDA-MB-231 breast
[34] = tested on: NCI/ADR-RES ovarian
[35] = tested on: EKVX NSCLC
[36] = tested on: PC-3 prostate
[37] = tested on: NCI-H522 lung
[38] = tested on: TK-10 renal
[39] = tested on: UACC-257 melanoma
[40] = tested on: NCI-H23 lung
[41] = tested on: RPMI-8226 leukemia
[42] = tested on: RXF 393 renal
[43] = tested on: SK-MEL-5 melanoma
[44] = tested on: COLO 205 colon
[45] = tested on: HOP-62 NSCLC
[46] = tested on: HT29 colon
[47] = tested on: NCI-H226 lung
[48] = tested on: SW-620 colon
[49] = tested on: DU-145 prostate
[50] = tested on: SK-MEL-28 melanoma
[51] = tested on: HS 578T breast
[52] = tested on: ACHN renal
[53] = tested on: SNB-75 CNS
[54] = tested on: SK-MEL-2 melanoma
[55] = tested on: OVCAR-5 ovarian
[56] = tested on: CAKI-1 renal
[57] = tested on: SF-268 CNS
[58] = tested on: HCC-2998 colon

CCOC(=O)C1=C(C)NC(=O)NC1c1coc2cc(C)cc(C)c2c1=O (stereo not given)
TGI [1]: > 100000 nM
TGI [2]: > 100000 nM
TGI [3]: > 100000 nM
TGI [4]: > 100000 nM
TGI [5]: > 100000 nM
TGI [6]: > 100000 nM
TGI [7]: > 100000 nM
TGI [8]: > 100000 nM
TGI [9]: > 70500 nM
TGI [10]: > 100000 nM
TGI [11]: > 100000 nM
TGI [12]: > 100000 nM
TGI [13]: > 100000 nM
TGI [14]: > 100000 nM
TGI [15]: > 100000 nM
TGI [16]: > 100000 nM
TGI [17]: > 100000 nM
TGI [18]: > 100000 nM
TGI [19]: > 100000 nM
TGI [20]: 45400 nM
TGI [21]: > 100000 nM
TGI [22]: > 100000 nM
TGI [23]: > 100000 nM
TGI [24]: > 79800 nM
TGI [25]: > 100000 nM
TGI [26]: > 100000 nM
TGI [27]: > 100000 nM
TGI [28]: > 100000 nM
TGI [29]: > 100000 nM
TGI [30]: > 100000 nM
TGI [31]: > 100000 nM
TGI [32]: > 100000 nM
TGI [33]: > 100000 nM
TGI [34]: > 100000 nM
TGI [35]: > 100000 nM
TGI [36]: > 100000 nM
TGI [37]: 14500 nM
TGI [38]: > 100000 nM
TGI [39]: > 100000 nM
TGI [40]: > 100000 nM
TGI [41]: > 100000 nM
TGI [42]: > 100000 nM
TGI [43]: > 100000 nM
TGI [44]: > 100000 nM
TGI [45]: > 100000 nM
TGI [46]: > 100000 nM
TGI [47]: > 100000 nM
TGI [48]: > 100000 nM
TGI [49]: > 100000 nM
TGI [50]: > 100000 nM
TGI [51]: > 100000 nM
TGI [52]: > 100000 nM
TGI [53]: > 100000 nM
TGI [54]: 99500 nM
TGI [55]: > 100000 nM
TGI [56]: > 100000 nM
TGI [57]: > 100000 nM

COc1cc([C@@H]2c3cc4c(cc3[C@@H](O[C@@H]3O[C@@H]5CO[C@@H](c6cccs6)O[C@H]5[C@H](O)[C@H]3O)[C@H]3COC(=O)[C@H]23)OCO4)cc(OC)c1O
GI50 [1]: 344 nM
TGI [1]: 4810 nM
GI50 [2]: 70.4 nM
TGI [2]: > 100000 nM
GI50 [3]: 180 nM
TGI [3]: 6960 nM
GI50 [4]: 435 nM
TGI [4]: 5020 nM
GI50 [5]: 166 nM
TGI [5]: 2730 nM
GI50 [6]: 340 nM
TGI [6]: 2510 nM
GI50 [7]: 31.3 nM
GI50 [8]: 411 nM
TGI [8]: > 100000 nM
GI50 [9]: 1420 nM
TGI [9]: 5450 nM
GI50 [10]: 634 nM
TGI [10]: 4340 nM
GI50 [11]: 344 nM
TGI [11]: 4370 nM
GI50 [12]: 1780 nM
TGI [12]: 14700 nM
GI50 [13]: 233 nM
TGI [13]: 3300 nM
GI50 [14]: 456 nM
TGI [14]: 10200 nM
GI50 [15]: 186 nM
TGI [15]: 8210 nM
GI50 [16]: 49.1 nM
TGI [16]: > 100000 nM
GI50 [17]: 207 nM
TGI [17]: 12300 nM
GI50 [18]: 267 nM
TGI [18]: 2950 nM
GI50 [19]: 96.9 nM
TGI [19]: 2560 nM
GI50 [20]: 1150 nM
TGI [20]: > 39200 nM
GI50 [21]: 97.2 nM
TGI [21]: 432 nM
GI50 [22]: 193 nM
TGI [22]: 1340 nM
GI50 [23]: 2830 nM
TGI [23]: 37400 nM
GI50 [58]: 385 nM
TGI [58]: 2020 nM
GI50 [24]: 10.1 nM
TGI [24]: 15000 nM
TGI [25]: > 55900 nM
GI50 [26]: 119 nM
TGI [26]: 967 nM
TGI [27]: 1990 nM
GI50 [28]: 284 nM
TGI [28]: 2200 nM
GI50 [29]: 167 nM
TGI [29]: > 100000 nM
TGI [30]: 36700 nM
GI50 [31]: 23 nM
TGI [31]: 2090 nM
GI50 [32]: 96.9 nM
TGI [32]: 2260 nM
GI50 [33]: 1560 nM
TGI [33]: 7430 nM
GI50 [34]: 19000 nM
TGI [34]: > 100000 nM
GI50 [35]: 4100 nM
TGI [35]: > 100000 nM
GI50 [36]: 1690 nM
TGI [36]: > 69700 nM
GI50 [37]: 208 nM
TGI [37]: 1400 nM
GI50 [39]: 796 nM
TGI [39]: 10500 nM
GI50 [40]: 179 nM
TGI [40]: 2600 nM
TGI [41]: 6480 nM
GI50 [42]: 409 nM
TGI [42]: 3410 nM
GI50 [43]: 157 nM
TGI [43]: 1330 nM
GI50 [44]: 1880 nM
TGI [44]: 8940 nM
GI50 [45]: 197 nM
TGI [45]: 2340 nM
GI50 [46]: 614 nM
TGI [46]: 3660 nM
GI50 [47]: 152 nM
TGI [47]: 742 nM
GI50 [48]: 175 nM
TGI [48]: > 46100 nM
GI50 [49]: 288 nM
TGI [49]: 3430 nM
GI50 [50]: 440 nM
TGI [50]: 2900 nM
GI50 [51]: 2030 nM
TGI [51]: 15300 nM
TGI [52]: 3690 nM
GI50 [53]: 104 nM
TGI [53]: 1560 nM
GI50 [54]: 1330 nM
TGI [54]: 4840 nM
GI50 [55]: 1560 nM
TGI [55]: 8270 nM
GI50 [56]: 557 nM
TGI [56]: 24200 nM
GI50 [57]: 266 nM
TGI [57]: 7200 nM
